Experimental data reported in ChEMBL document CHEMBL1201862, “PubChem BioAssay data set” (2004).
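How tested: cells in 96-well plates exposed to compound for 48 hours at five concentrations. GI50: concentration for 50% inhibition of growth.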 The source made the active and inactive calls. Cut-off read from the data, not from the text of the source: active = GI50 up to about 1.1 µM and inactive = higher.

How the values were obtained:
Experiment in all cases: DTP human tumour cell line panel, 48 h
[1] = test system: NCI/ADR-RES
[2] = test system: LOX IMVI
[3] = test system: MDA-MB-435
[4] = test system: DU-145
[5] = test system: MCF7
[6] = test system: CAKI-1
[7] = test system: UACC-257
[8] = test system: SK-OV-3
[9] = test system: CCRF-CEM
[10] = test system: IGROV-1
[11] = test system: Hs-578T
[12] = test system: RPMI-8226
[13] = test system: A498
[14] = test system: Malme-3M

| SMILES | GI50 [1] | GI50 [2] | GI50 [3] | GI50 [4] | GI50 [5] | GI50 [6] | GI50 [7] | GI50 [8] | GI50 [9] | GI50 [10] | GI50 [11] | GI50 [12] | GI50 [13] | GI50 [14] |
| --- | --- | --- | --- | --- | --- | --- | --- | --- | --- | --- | --- | --- | --- | --- |
| O=C1O/C(=C\c2ccc(O)cc2)C(c2ccc(O)c(Cl)c2)=C1Br | 11.1 µM (inactive) | 42 µM (inactive) | 15.7 µM (inactive) | 12.9 µM (inactive) | 16.7 µM (inactive) | 15.4 µM (inactive) | 13.9 µM (inactive) | 14 µM (inactive) | 5.94 µM (inactive) | 12 µM (inactive) | 11.6 µM (inactive) | 10.6 µM (inactive) | 16.4 µM (inactive) | 15.3 µM (inactive) |
| C/C(=N\NC(=O)c1ccncc1)c1sc(-n2nc(-c3ccccc3)cc2-c2ccccc2)nc1C | > 100 µM (inactive) | > 80.9 µM (inactive) | > 31.6 µM (inactive) | > 31.6 µM (inactive) | > 31.6 µM (inactive) | 98.4 µM (inactive) | > 31.6 µM (inactive) | > 31.6 µM (inactive) | > 31.6 µM (inactive) | > 33.7 µM (inactive) | > 74.3 µM (inactive) | 20.7 µM (inactive) | > 100 µM (inactive) | > 56.2 µM (inactive) |
| CN(C)CN1C(=O)/C(=N\n2c(S)nnc2-c2ccncc2)c2ccccc21 | 41.9 µM (inactive) | 22.9 µM (inactive) | 15.8 µM (inactive) | 26.5 µM (inactive) | 31.3 µM (inactive) | 69.3 µM (inactive) | 15.5 µM (inactive) | 31.7 µM (inactive) | 9.38 µM (inactive) | 38.5 µM (inactive) | 42.5 µM (inactive) |  | > 100 µM (inactive) | > 100 µM (inactive) |
| CCCCNC(=O)OCCN=C1c2ccccc2C(Br)C(Br)c2ccccc21 (centres undefined) | 19.9 µM (inactive) | 20 µM (inactive) | 21 µM (inactive) | 41.3 µM (inactive) | 58.2 µM (inactive) | 25.6 µM (inactive) | 26.8 µM (inactive) | 32.1 µM (inactive) | 10.1 µM (inactive) | 49.8 µM (inactive) | 36.1 µM (inactive) | 22.5 µM (inactive) | 41.5 µM (inactive) | 23.3 µM (inactive) |
| COC(=O)C1(OC(=O)Sc2ccccc2)CCN(C)CC1 | 13.1 µM (inactive) | 8.07 µM (inactive) | 13.8 µM (inactive) | 23.8 µM (inactive) | > 52 µM (inactive) | 4.95 µM (inactive) | 20.2 µM (inactive) | 33.3 µM (inactive) | 1.84 µM (inactive) | 4.75 µM (inactive) | 21.1 µM (inactive) | 6.38 µM (inactive) | 21.8 µM (inactive) | 63.7 µM (inactive) |
| Fc1ccc(C(OCCN2CCN(CCCc3ccccc3)CC2)c2ccc(F)cc2)cc1 | 3.13 µM (inactive) | 4.65 µM (inactive) | 3.63 µM (inactive) | 5.97 µM (inactive) | 4.59 µM (inactive) | 4.06 µM (inactive) | 2.81 µM (inactive) | 6.04 µM (inactive) | 4.5 µM (inactive) | 10.4 µM (inactive) | 3.26 µM (inactive) | 2.58 µM (inactive) | 6.97 µM (inactive) | 5.31 µM (inactive) |
| COc1cccc(C(=O)C#Cc2cnc(OC)nc2OC)c1 | 1.85 µM (inactive) | 0.119 µM (active) | 1.86 µM (inactive) | 5.87 µM (inactive) | 0.126 µM (active) | 1.99 µM (inactive) | 2.15 µM (inactive) | 18.1 µM (inactive) | 0.0286 µM (active) | 0.653 µM (active) | 7.66 µM (inactive) | 2.01 µM (inactive) | 8.69 µM (inactive) | 1.38 µM (inactive) |
| CCCCCCCCCCCCCCCCP(=O)([O-])OCC[N+](C)(C)C | 18.7 µM (inactive) | 14.9 µM (inactive) | 17.3 µM (inactive) | 14.7 µM (inactive) | 17.5 µM (inactive) | 12.1 µM (inactive) | 16.9 µM (inactive) | 7.4 µM (inactive) | 8.47 µM (inactive) | 1.56 µM (inactive) | 15.8 µM (inactive) | 15.3 µM (inactive) | 14.5 µM (inactive) | 21.3 µM (inactive) |
| CCOC(=O)/C=C(\C(=O)OCC)n1ccc(=O)n(Cc2cnnn2CCCCOC(C)=O)c1=O | 17.6 µM (inactive) | 4.09 µM (inactive) | 6.85 µM (inactive) | 18.6 µM (inactive) | 4.79 µM (inactive) | 2.38 µM (inactive) | 11.3 µM (inactive) | 34 µM (inactive) | 1.99 µM (inactive) | 14 µM (inactive) | 16.3 µM (inactive) | 6.68 µM (inactive) | 21.1 µM (inactive) | 2.06 µM (inactive) |
| Fc1cccc(C2ON=C(c3ccccc3)N2C23CC4CC(CC(C4)C2)C3)c1 (centres undefined) | > 10 µM (inactive) | > 10 µM (inactive) | > 10 µM (inactive) | > 10 µM (inactive) | > 10 µM (inactive) | > 10 µM (inactive) | > 10 µM (inactive) | > 10 µM (inactive) |  | > 10 µM (inactive) | > 10 µM (inactive) | 8.77 µM (inactive) | > 10 µM (inactive) | > 10 µM (inactive) |
| COC(=O)[C@]1(C)CCCn2c(=O)n(-c3ccccc3)c(=O)n21 | > 100 µM (inactive) | > 100 µM (inactive) | > 100 µM (inactive) | > 100 µM (inactive) | > 100 µM (inactive) | > 100 µM (inactive) | > 100 µM (inactive) | > 100 µM (inactive) | > 100 µM (inactive) | > 100 µM (inactive) | > 100 µM (inactive) | > 100 µM (inactive) | > 100 µM (inactive) |  |
| CC(C)C1(O)C(=O)N(c2c(F)c(F)c(F)c(F)c2F)C(=S)N1CCSc1ccccc1 (centres undefined) | 16.3 µM (inactive) | 16.5 µM (inactive) | 18.2 µM (inactive) | 17.1 µM (inactive) | 17.2 µM (inactive) | 12.2 µM (inactive) | 18.2 µM (inactive) | 17.3 µM (inactive) | 13.9 µM (inactive) | 16.4 µM (inactive) | 22.6 µM (inactive) | 10.9 µM (inactive) | 16.3 µM (inactive) | 17.3 µM (inactive) |
| O=c1ccn(C2OC(COC3CCCCO3)C(OC3CCCCO3)C2OC2CCCCO2)c(=O)n1-c1ccccc1 (centres undefined) | > 100 µM (inactive) | > 100 µM (inactive) | > 100 µM (inactive) | > 100 µM (inactive) | > 100 µM (inactive) | > 100 µM (inactive) | > 100 µM (inactive) | > 100 µM (inactive) | > 100 µM (inactive) | > 100 µM (inactive) | > 100 µM (inactive) | > 100 µM (inactive) | > 100 µM (inactive) | > 100 µM (inactive) |
| CO[C@H]1c2cccc3cccc(c23)[C@@H]1n1[nH]c(=O)n(C(C)(C)C)c1=O | > 100 µM (inactive) | > 100 µM (inactive) | > 100 µM (inactive) | > 100 µM (inactive) | > 100 µM (inactive) | > 100 µM (inactive) | > 100 µM (inactive) | > 100 µM (inactive) | > 100 µM (inactive) | > 100 µM (inactive) | > 100 µM (inactive) | > 100 µM (inactive) | > 100 µM (inactive) | > 100 µM (inactive) |
| S=C(N/N=C/c1ccccn1)N1CCCCCC1 | < 0.01 µM (active) | < 0.01 µM (active) | 0.148 µM (active) | 0.115 µM (active) | < 0.01 µM (active) | < 0.0423 µM (active) | < 0.01 µM (active) | < 0.01 µM (active) | < 0.01 µM (active) | < 0.01 µM (active) | 11.5 µM (inactive) | < 0.01 µM (active) | < 0.0391 µM (active) | < 0.0392 µM (active) |
| CC(C)(C)OC(=O)NC(CSSCC(NC(=O)OC(C)(C)C)C(=O)O)C(=O)O (centres undefined) | > 100 µM (inactive) | > 100 µM (inactive) | > 100 µM (inactive) | > 100 µM (inactive) | > 100 µM (inactive) | > 100 µM (inactive) | > 100 µM (inactive) | > 100 µM (inactive) | > 100 µM (inactive) | > 100 µM (inactive) | > 100 µM (inactive) | > 100 µM (inactive) | > 100 µM (inactive) | > 100 µM (inactive) |
| COc1cc(/C=C/C(=O)CC(=O)/C=C/c2ccc(O)c(OC)c2)ccc1O [CURCUMIN] | 7.26 µM (inactive) | 2.72 µM (inactive) | 2.98 µM (inactive) | 15.7 µM (inactive) | 3.34 µM (inactive) | 11.9 µM (inactive) | 11.5 µM (inactive) | 8.91 µM (inactive) | 3.03 µM (inactive) | 7.89 µM (inactive) | 10.9 µM (inactive) | 2.09 µM (inactive) | 16 µM (inactive) | 14 µM (inactive) |
| O=c1cnnc2sc(=S)[nH]n12 | 30.1 µM (inactive) | 4.13 µM (inactive) | 24.7 µM (inactive) | > 100 µM (inactive) | 14.7 µM (inactive) | 21.9 µM (inactive) | 15.9 µM (inactive) |  | 2.07 µM (inactive) | 24 µM (inactive) | 2.22 µM (inactive) | 13.7 µM (inactive) | > 100 µM (inactive) | 31 µM (inactive) |
| Cc1ccc(/C=C2\Cc3c(C)cc(C)cc3C2=O)c(C(=O)O)c1 | 90.6 µM (inactive) | 22.6 µM (inactive) | 31.6 µM (inactive) | 51.5 µM (inactive) | 56.2 µM (inactive) | > 100 µM (inactive) | 61.8 µM (inactive) |  | 35.1 µM (inactive) | 79.8 µM (inactive) | 35.2 µM (inactive) | 19.3 µM (inactive) | 30.1 µM (inactive) | 72.3 µM (inactive) |
| C=C1CC[C@](C)(O)[C@@]2(C)CC[C@H]3C(=C(C)C)C(=O)C[C@]3(C)C[C@H]12 | 27.7 µM (inactive) | 10.4 µM (inactive) | 17.5 µM (inactive) | > 50 µM (inactive) | 28.4 µM (inactive) | 22.4 µM (inactive) | > 50 µM (inactive) | > 50 µM (inactive) | 10.9 µM (inactive) | 14.7 µM (inactive) | > 50 µM (inactive) | 17.9 µM (inactive) | > 50 µM (inactive) |  |
